Assay results published in the SangsterLogP compilation.

Assay: not given

logP | SMILES
2.44 | O=C(Nc1ncc([N+](=O)[O-])s1)c1c(F)cccc1F
2.71 | O=C(Nc1ncc([N+](=O)[O-])s1)c1ccccc1F
3.12 | O=C(Nc1ncc([N+](=O)[O-])s1)c1ccc(F)cc1
3 | O=C(Nc1ncc([N+](=O)[O-])s1)c1c(F)cccc1Cl
3.57 | O=C(Nc1ncc([N+](=O)[O-])s1)c1cc(Cl)ccc1Cl

SMILES | logP
CC(=O)Oc1ccccc1C(=O)Nc1ncc([N+](=O)[O-])s1 | 2.41

Assay: method code SF-AS, from DOI: 10.1002/(sici)1521-3838(199801)17:01<01::aid-qsar1>3.0.co;2-a

SMILES | logP
O=C(Nc1ncc([N+](=O)[O-])s1)c1ccc(Cl)cc1Cl | 3.62
O=C(Nc1ncc([N+](=O)[O-])s1)c1cccc(Cl)c1 | 3.61
O=C(Nc1ncc([N+](=O)[O-])s1)c1cc(Cl)cc(Cl)c1 | 4.14
O=C(Nc1ncc([N+](=O)[O-])s1)c1ccc(Cl)c(Cl)c1 | 4.14

Further lines, results first:

logP | SMILES
3.09 | O=C(Nc1ncc([N+](=O)[O-])s1)c1ccccc1Br
2.97 | O=C(Nc1ncc([N+](=O)[O-])s1)c1ccccc1
3.8 | O=C(Nc1ncc([N+](=O)[O-])s1)c1cccc(Br)c1
3.75 | O=C(Nc1ncc([N+](=O)[O-])s1)c1cc(Br)ccc1Br
3.58 | O=C(Nc1ncc([N+](=O)[O-])s1)c1ccc(Br)cc1
